Reference: ChEMBL document CHEMBL5726146, “Sulfone amide linked benzothiazole inhibitors of endothelial lipase” (2019)

Biological target: T1, Endothelial lipase (Homo sapiens, UniProt Q9Y5X9)
T1 sequence (Q9Y5X9 whole entry): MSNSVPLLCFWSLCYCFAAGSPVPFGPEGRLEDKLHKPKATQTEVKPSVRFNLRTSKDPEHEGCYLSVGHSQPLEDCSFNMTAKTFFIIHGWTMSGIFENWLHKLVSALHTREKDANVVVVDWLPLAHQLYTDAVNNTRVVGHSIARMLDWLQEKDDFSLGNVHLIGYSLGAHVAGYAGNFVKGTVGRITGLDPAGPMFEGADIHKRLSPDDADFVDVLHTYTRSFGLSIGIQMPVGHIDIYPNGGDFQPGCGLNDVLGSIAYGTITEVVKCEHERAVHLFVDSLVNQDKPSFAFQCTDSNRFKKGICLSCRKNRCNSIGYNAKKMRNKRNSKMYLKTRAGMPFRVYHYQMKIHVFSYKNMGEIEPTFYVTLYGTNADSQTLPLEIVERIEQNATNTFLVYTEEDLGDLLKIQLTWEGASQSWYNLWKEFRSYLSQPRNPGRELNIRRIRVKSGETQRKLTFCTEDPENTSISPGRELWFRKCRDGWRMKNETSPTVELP
Experiment: Biological Activity: Endothelial lipase (EL) and hepatic lipase (HL) activities were measured using a fluorescent substrate, A10070, (Invitrogen, CA) doped into an artificial vesicle containing DMPG (Avanti Polar Lipids) as the excipient. Vesicles were prepared by combining 571 μL of 29 mM DMPG in a 1:1 mixture of MeOH and CHCl3 with 2000 μL of 1 mM A10070 in a 1:1 mixture of MeOH and CHCl3. The mixture was dried under nitrogen in multiple vials then resuspended in 20 mL total volume of 50 mM HEPES pH 8.0 buffer containing 50 mM NaCl and 0.2 mM EDTA. The sample was allowed to sit at room temperature for 15 min and then was sonicated 3×4 mins on ice with a Branson Sonicator using duty cycle 1. This preparation provides vesicles with a mole fraction of 0.11 for the FRET substrate.The enzymatic assay was measured using 384-well white Optiplates. Each well contained 20 μL of assay buffer (50 mM HEPES pH 8.0, 50 mM NaCl and 1 mM CaCl2) and 0.25 μL of a DMSO solution containing a compound of interest. EL or HL (10 μL) was added and allowed to incubate with the compound for 30 min at 37° C. The source of EL was conditioned media obtained from HT-1080 cells that were transformed using RAGE technology (Athersys) to overexpress endogenous EL, and HL was partially purified from conditioned media obtained from COS cells overexpressing HL. The reaction was started by the addition of 10 μL of a 1:10 dilution of vesicles. The final total reaction volume was […]. The reaction rates were measured on a Gemini plate reader with an excitation wavelength of 490 nm and an emission wavelength of 530 nm. Readings were taken over a period of 60 minutes, and the slope between 300 and 900 secs of the readout was used to calculate the rate of the reaction.

Structure (SMILES) | IC50
CC(=O)Nc1ccc(-c2cc3sc(C(C(=O)NCC(=O)NC4CC4)S(C)(=O)=O)nc3cc2F)cc1 (configuration not stated) | 9 nM
O=C(CNC(=O)C(c1nc2ccc(-c3ccc(F)nc3)cc2s1)S(=O)(=O)C1CCOCC1)NC1CC1 (configuration not stated) | 47 nM
COCCS(=O)(=O)C(C(=O)NCC(=O)NC1CC1)c1nc2cc(F)c(-c3ccc4c(c3)CCN4)cc2s1 (configuration not stated) | 3 nM
CS(=O)(=O)C(C(=O)NCC(=O)NC1CC1)c1nc2cc(-c3ccccc3)c(F)cc2s1 (configuration not stated) | 4 nM
O=C(CNC(=O)C(c1nc2cc(F)c(-c3ccc(F)nc3)cc2s1)S(=O)(=O)c1ccccc1F)NC1CC1 (configuration not stated) | 58 nM
C[C@H]1CN(C(=O)c2ccc(-c3ccc4nc(C(C(=O)NCC(=O)NC5CC5)S(C)(=O)=O)sc4c3)cc2)CCO1 (some centres not stated) | 31 nM
COCCS(=O)(=O)C(C(=O)NCC(=O)NC1CC1)c1nc2ccc(-c3cccnc3C(F)(F)F)cc2s1 (configuration not stated) | 37 nM
CS(=O)(=O)C(C(=O)NCC(=O)NC1CC1)c1nc2cc(F)c(-c3ccc(=O)n(-c4ccccc4)c3)cc2s1 (configuration not stated) | 6 nM
COCCS(=O)(=O)C(C(=O)NCC(=O)NC1CC1)c1nc2cc(-c3ccc(C)nc3)ccc2s1 (configuration not stated) | 34 nM
COCCS(=O)(=O)C(C(=O)NCC(=O)NC1CC1)c1nc2ccc(-c3ccc(N4CCCC4)nc3)cc2s1 (configuration not stated) | 118 nM
COCCS(=O)(=O)C(C(=O)NCC(=O)NC1CC1)c1nc2c(F)cc(-c3cccnc3F)cc2s1 (configuration not stated) | 106 nM
Cn1nccc1-c1cc2sc(C(C(=O)NCC(=O)NC3CC3)S(C)(=O)=O)nc2cc1F (configuration not stated) | 26 nM
CS(=O)(=O)C(C(=O)NCC(=O)NC1CC1)c1nc2cc(F)c(-c3ccc4c(c3)CCCN4C(=O)Cc3c(F)cccc3F)cc2s1 (configuration not stated) | 7 nM
COCCS(=O)(=O)C(C(=O)NCC(=O)NC1CC1)c1nc2ccc(-c3ccc(C(N)=O)c(Cl)c3)cc2s1 (configuration not stated) | 33 nM
COCCS(=O)(=O)C(C(=O)NCC(=O)NC1CC1)c1nc2cc(-c3ccc(OC(C)C)nc3)ccc2s1 (configuration not stated) | 11 nM
O=C(CNC(=O)C(c1nc2ccc(-c3cccnc3F)cc2s1)S(=O)(=O)c1ccccc1)NC1CC1 (configuration not stated) | 102 nM
CS(=O)(=O)C(C(=O)NCC(=O)NC1CC1)c1nc2cc(F)c(-c3ccc(C(=O)NCCc4ccccc4)cc3)cc2s1 (configuration not stated) | 1 nM
